Data: patent US20140178892A1, “SCREENING METHODS BASED ON VESICLE MOBILITY” (priority 2011, published 2014)

Legend:
[1] = tested on: secretory vesicles in transfected astrocytes expressing ANP.emd; test: Mobility of fluorescently labeled (ANP.emd) secretory vesicles in cultured astrocytes, particle tracking of time-lapse fluorescence images; type: cell-based, rat; details: for mean vesicle track length (TL) / mean vesicle maximal displacement (MD): 10 μM sphingosine, versus standard reference compound (Stand), 15 s epochs; for mean vesicle track length (TL): FIG. 2E; for mean vesicle maximal displacement (MD): FIG. 2F
Procedure: Cultured astrocytes, e.g. isolated as previously described by Schwartz & Wilson (Glia. 1992; 5(1):75-80) or any other cell type isolated from animal tissues or clonal cell lines derived from human or animal sources are seeded onto coverslips and maintained in an adequate cell cultured medium.
(§1) Cell organelles are stained by commercially available dyes and/or by cell transfection. E.g. peptidergic secretory vesicles are labeled by cell transfection for the secretory peptide—pro-atrial natriuretic peptide tagged with emerald green fluorescent protein (ANP.emd; see Han et al., Proc Natl Acad Sci USA. 1999; 96:14577-14582; Krian et al., J. Neurosci. 2003; 23(5):1580-3.). Glutamatergic vesicles are stained by cell transfection for vesicular glutamate transporter 1 tagged with green fluorescent protein (VGLUT1-GFP). ATP containing vesicles are stained by incubation of cells in quinacrine dihydrochloride (1 μM, 15 min at room temperature) (Pangrsic et al., J Biol. Chem. 2007; 28; 282(39):28749-58) and endosomes/lysosomes by incubation of cells in LysoTracker Red DND-99 (200 nM, 5 min, RT, Invitrogen) (Potokar et al., Glia. 2010; 58(10):1208-19). To observe MHC class II expression cells are loaded with 0.1 mg/ml Alexa Fluor^546 dextran (Molecular Probes, Invitrogen) for 16 hours at 37° C.
Cell cultures are treated with the biologically active substances (i.e. constituents of sera, cerebrospinal fluid and other biologically relevant small inorganic and organic substances, other related substances and mixtures of these), or with the reference standard compound, which consists of FTY720 and FTY720-phosphate (FTY720-P) in ratio from 1:0.1 to 1:100, dissolved in cell culture medium for 10 min at 18-37° C. […]
(§2) Cell loaded coverslips are then rinsed with extracellular solution (consisting of 10 mM HEPES/NaOH (pH 7.2), 10 mM D-glucose, 130 mM NaCl, 2 mM CaCl2, 2 mM MgCl2, and 5 mM KCl) and observed by fluorescence microscopy at 63× or 100× magnification using 488 nm Ar—Ion laser excitation (for ANP.emd, VGLUT1-GFP and quinacrine dihydrochloride) or 543 nm He—Ne laser exitation (for LysoTracker Red DND-99, Alexa Fluor^546 dextran), and band-pass filtered at 505-530 nm or long-pass filtered at 560 nm. Time-lapse fluorescence images are acquired at 0.5-2 Hz for 1-10 minutes to monitor vesicle mobility.
(§3) Vesicle traffic is analyzed by particle tracking software previously described (Potokar et al.; Biochem Biophys Res Commun. 2005; 329(2):678-83).
(§4) Several mobility parameters are determined for variable time epochs typically lasting 10-60 seconds: step length (displacement of a vesicle within the two successive frames), speed, track length (TL; the total path traveled by a vesicle within the defined time epoch), the vesicle maximal displacement (MD; a measure for the net translocation of a vesicle within the defined time epoch; cf. Wacker et al., J Cell Sci 110 (Pt 13):1453-63), the angle of MD and the directionality index (DI; the ratio of MD to TL).
Example of the analysis of biologically active substances, such as sphingosine and immunoglobulin G (IgG) from human serum, on the mobility of secretory vesicles with respect to the effect of the standard compound, which is also the subject of the present invention. The example is shown in FIGS. 2E and F. The mobility of fluorescently labeled vesicles in transfected astrocytes expressing ANP.emd was analyzed by particle analyzing program Track2 and quantitative parameters of vesicle mobility were determined. […]

[2] = tested on: dextran-labeled vesicles carrying MHC class II molecules in astrocytes; test: Mobility of Alexa Fluor 546 dextran-labeled MHC class II vesicles in control and IFNγ activated astrocytes; type: cell-based; details: for average vesicle maximal displacement / average vesicle track length: FIG. 4
From the text: as §1
Cell cultures are treated with the biologically active substances (i.e. constituents of sera, cerebrospinal fluid and other biologically relevant small inorganic and organic substances, other related substances and mixtures of these), or with the reference standard compound, which consists of FTY720 and FTY720-phosphate (FTY720-P) in ratio from 1:0.1 to 1:100, dissolved in cell culture medium for 10 min at 18-37° C. To observe augmentation of the MHC class II molecule expression, cells are treated with interferon gamma (IFN-γ) for 48 hours at 37° C. or any other stimulant of the antigen presentation.
as §2
Cells can be stimulated with adenosine triphosphate (ATP) or any other stimulus of exocytotic release to record vesicle mobility and secretion before and after cell stimulation.
as §3, §4
The example of vesicle mobility modulation in relation to the antigen presentation in IFNγ activated astrocytes. […] Therefore the mobility analysis of dextran-labeled vesicles can be applied to describe the modulated mobility of the vesicles carrying MHC class II molecules upon stimulation of antigen presentation in astrocytes. […]

[3] = tested on: MHC class II molecules in astrocytes; test: MHC class II expression in astrocytes by immunostaining and fluorescence microscopy; type: cell-based; details: IFNγ treated versus control astrocytes; overlay with dextran loaded structures; FIG. 3
From the text: as §1, with “C. […]” for “C.”

[4] = cell stimulation with 1 mM ATP, control and IFNγ treated cells
[5] = IFNγ treated astrocytes versus non-treated control cells (Spon.)

Molecule: CCCCCCCCCCCCC/C=C/[C@@H](O)[C@@H](N)CO [sphingosine]
- mean vesicle track length (TL) [1]: significantly attenuates
- mean vesicle track length (TL) ([1]; listed as Sphingosine): strongly attenuates
- mean vesicle maximal displacement (MD) [1]: significantly attenuates
- mean vesicle maximal displacement (MD) ([1]; listed as Sphingosine): strongly attenuates
- vesicle mobility ([1]; dependence on extracellular concentration, regions near the plasmalemma and deeper in the cytoplasm): dose-dependently attenuated

Molecule: Nc1ncnc2c1ncn2[C@@H]1O[C@H](COP(=O)(O)OP(=O)(O)OP(=O)(O)O)[C@@H](O)[C@H]1O [ATP, adenosine triphosphate]
- average vesicle maximal displacement [2, 4]: reduces
- average vesicle track length [2, 4]: reduces

B1: IFNγ: cytokine interferon gamma (protein, UniProt P01579 24-161, looked up)
Interferon gamma: QDPYVKEAENLKKYFNAGHSDVADNGTLFLGILKNWKEESDRKIMQSQIVSFYFKLFKNFKDDQSIQKSVETIKEDMNVKFFNSNKKKRDDFEKLTNYSVTDLNVQRKAIHELIQVMAELSPAAKTGKRKRSQMLFRG
- average vesicle maximal displacement [2, 5]: significantly increase
- average vesicle track length [2, 5]: significantly increase
- mobility, in particular long-range mobility, of MHC class II-positive vesicles ([2]; astrocytes exposed to interferon-γ): enhanced
- expression of MHC class II molecules [3]: induces
